According to US12275731B2, “Azaindole inhibitors of wild-type and mutant forms of LRRK2” (DANA-FARBER CANCER INSTITUTE, INC., priority 2018, dated 2025):

Key:
Assay in all cases: KinomeScan profiling
Assay type in all cases: binding
[1] = target: TRKB (Homo sapiens, UniProt Q16620); conditions: read-out: % control
Summary of the method: (§1)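 Compounds were screened at 1 μM in DMSO across a 468-kinase KinomeScan panel. Binding was expressed as % control, scaled between a positive control (0%) and DMSO (100%) using luminescence signal. A value under 35% counted as active.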

[2] = target: T1, MEK3 (Homo sapiens, UniProt P46734); conditions: MEK3, 1 μM; read-out: % control
T1 sequence (P46734 1-347): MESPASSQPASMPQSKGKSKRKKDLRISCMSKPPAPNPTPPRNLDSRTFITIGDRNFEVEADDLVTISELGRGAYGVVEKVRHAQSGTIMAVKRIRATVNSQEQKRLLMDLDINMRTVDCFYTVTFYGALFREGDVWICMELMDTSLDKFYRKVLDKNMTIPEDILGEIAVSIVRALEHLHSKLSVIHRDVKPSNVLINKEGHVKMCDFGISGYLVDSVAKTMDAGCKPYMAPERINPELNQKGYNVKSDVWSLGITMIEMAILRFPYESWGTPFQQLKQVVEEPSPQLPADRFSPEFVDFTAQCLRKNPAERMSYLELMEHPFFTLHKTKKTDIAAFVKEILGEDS
Summary of the method: as §1

[3] = target: T2, S6K1 (Homo sapiens, UniProt P23443); conditions: S6K1, 1 μM; read-out: % control
T2 construct: purchased KinomeScan® (panel service)
T2 sequence (P23443 whole entry): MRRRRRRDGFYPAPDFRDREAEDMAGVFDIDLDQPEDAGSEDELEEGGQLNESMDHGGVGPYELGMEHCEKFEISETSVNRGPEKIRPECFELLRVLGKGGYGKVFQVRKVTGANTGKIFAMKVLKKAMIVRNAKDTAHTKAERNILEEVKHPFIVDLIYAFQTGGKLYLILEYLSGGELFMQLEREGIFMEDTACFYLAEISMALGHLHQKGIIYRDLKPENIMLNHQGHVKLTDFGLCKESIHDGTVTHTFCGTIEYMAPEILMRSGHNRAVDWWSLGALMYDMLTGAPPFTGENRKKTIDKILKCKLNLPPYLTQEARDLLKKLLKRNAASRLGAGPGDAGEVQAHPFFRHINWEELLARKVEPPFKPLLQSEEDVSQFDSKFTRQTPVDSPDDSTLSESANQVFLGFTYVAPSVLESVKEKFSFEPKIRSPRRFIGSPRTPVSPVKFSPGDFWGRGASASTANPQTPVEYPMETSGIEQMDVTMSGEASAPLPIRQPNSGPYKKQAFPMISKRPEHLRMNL
Summary of the method: as §1

[4] = target: MLK1 (Homo sapiens, UniProt P80192); conditions: MLK1, 1 μM; read-out: % control
MLK1, sequence (P80192 whole entry): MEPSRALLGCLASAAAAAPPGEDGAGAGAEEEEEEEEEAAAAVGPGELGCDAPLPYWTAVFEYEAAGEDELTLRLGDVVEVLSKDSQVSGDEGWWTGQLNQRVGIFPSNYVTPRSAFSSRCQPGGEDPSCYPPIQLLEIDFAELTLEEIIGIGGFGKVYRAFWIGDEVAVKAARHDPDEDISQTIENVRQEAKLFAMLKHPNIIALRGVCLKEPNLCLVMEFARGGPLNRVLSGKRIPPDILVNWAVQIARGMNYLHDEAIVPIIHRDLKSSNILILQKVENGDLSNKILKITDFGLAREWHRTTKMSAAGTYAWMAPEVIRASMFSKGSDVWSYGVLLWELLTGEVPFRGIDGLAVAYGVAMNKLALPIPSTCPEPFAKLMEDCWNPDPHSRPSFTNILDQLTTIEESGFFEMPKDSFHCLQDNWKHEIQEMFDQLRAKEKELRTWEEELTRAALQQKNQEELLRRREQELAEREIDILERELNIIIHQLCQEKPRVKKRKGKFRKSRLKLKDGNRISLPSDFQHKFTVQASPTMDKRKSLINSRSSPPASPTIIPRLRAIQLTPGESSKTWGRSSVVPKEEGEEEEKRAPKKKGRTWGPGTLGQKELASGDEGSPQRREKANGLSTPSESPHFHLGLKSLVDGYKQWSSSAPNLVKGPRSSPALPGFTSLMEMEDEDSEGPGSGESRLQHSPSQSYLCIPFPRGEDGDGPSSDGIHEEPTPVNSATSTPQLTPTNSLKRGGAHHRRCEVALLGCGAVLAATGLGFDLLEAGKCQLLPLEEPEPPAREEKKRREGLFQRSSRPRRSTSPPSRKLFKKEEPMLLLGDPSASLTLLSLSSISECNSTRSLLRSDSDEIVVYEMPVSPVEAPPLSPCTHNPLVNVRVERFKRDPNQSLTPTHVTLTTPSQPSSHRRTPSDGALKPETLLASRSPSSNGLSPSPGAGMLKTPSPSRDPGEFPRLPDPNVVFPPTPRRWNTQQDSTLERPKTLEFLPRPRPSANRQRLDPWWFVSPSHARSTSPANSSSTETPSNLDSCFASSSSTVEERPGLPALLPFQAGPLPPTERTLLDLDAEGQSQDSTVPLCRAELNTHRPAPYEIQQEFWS
Summary of the method: as §1

[5] = target: LYN (Homo sapiens, UniProt P07948); conditions: read-out: % control
LYN, sequence (P07948 whole entry): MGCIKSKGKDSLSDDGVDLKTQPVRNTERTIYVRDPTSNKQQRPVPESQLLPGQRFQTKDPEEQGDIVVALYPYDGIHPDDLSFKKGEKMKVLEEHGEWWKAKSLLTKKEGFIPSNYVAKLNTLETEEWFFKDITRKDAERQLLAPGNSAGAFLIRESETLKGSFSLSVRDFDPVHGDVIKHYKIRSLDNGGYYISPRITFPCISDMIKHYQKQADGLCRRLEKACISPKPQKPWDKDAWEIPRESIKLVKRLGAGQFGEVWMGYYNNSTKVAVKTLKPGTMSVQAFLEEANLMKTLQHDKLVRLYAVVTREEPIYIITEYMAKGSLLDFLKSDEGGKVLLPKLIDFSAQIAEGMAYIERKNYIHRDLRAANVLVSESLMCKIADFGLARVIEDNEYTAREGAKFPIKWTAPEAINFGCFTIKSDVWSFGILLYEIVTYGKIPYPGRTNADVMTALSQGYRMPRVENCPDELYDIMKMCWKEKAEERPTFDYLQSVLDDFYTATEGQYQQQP
Summary of the method: as §1

[6] = target: T3, ABL1(F317I)-phoshorylated (Homo sapiens, UniProt P00519, F317I); conditions: read-out: % control
T3 construct: purchased KinomeScan®
T3 sequence (P00519 whole entry F317I): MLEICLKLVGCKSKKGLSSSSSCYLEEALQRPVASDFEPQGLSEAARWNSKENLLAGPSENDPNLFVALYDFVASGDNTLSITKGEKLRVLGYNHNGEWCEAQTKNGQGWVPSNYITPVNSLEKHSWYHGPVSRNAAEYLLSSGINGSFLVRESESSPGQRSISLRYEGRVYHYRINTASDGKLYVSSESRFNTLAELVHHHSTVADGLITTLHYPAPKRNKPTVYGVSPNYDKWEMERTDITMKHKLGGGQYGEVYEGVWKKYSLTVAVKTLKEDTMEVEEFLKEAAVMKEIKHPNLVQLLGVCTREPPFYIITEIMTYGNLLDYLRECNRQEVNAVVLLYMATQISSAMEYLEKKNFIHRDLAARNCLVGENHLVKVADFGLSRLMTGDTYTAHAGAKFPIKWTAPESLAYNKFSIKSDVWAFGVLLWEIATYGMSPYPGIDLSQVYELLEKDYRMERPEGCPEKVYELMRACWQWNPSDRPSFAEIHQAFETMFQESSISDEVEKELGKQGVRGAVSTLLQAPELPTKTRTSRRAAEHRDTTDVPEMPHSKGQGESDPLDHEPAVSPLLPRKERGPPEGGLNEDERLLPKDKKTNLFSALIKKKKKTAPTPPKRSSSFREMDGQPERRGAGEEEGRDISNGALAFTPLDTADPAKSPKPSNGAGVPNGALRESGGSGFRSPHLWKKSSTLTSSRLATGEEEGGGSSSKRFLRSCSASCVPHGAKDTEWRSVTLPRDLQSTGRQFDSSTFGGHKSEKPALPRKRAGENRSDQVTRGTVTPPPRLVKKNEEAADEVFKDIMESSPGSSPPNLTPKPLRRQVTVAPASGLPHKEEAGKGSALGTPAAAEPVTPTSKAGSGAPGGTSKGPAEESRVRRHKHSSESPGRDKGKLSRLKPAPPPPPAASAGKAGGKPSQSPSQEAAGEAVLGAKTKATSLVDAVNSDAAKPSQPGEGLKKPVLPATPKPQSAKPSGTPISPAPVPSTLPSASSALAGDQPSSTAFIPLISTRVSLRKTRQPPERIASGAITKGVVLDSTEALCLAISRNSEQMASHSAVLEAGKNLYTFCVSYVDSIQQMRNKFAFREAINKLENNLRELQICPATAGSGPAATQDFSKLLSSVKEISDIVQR
Summary of the method: as §1

[7] = target: CSNK1G1 (Homo sapiens, UniProt Q9HCP0); conditions: CSNK1G1, 1 μM; read-out: % control
CSNK1G1, sequence (Q9HCP0 whole entry): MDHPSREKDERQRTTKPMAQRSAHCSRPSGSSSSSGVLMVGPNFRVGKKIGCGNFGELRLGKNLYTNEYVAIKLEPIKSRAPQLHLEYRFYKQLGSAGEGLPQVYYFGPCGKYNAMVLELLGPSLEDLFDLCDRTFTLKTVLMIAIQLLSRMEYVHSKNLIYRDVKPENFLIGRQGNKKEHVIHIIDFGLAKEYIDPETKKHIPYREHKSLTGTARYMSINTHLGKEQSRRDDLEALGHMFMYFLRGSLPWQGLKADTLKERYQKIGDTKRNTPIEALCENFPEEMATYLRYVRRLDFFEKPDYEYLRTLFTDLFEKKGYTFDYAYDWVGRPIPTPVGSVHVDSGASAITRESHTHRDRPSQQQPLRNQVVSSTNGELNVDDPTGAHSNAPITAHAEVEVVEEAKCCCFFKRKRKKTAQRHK
Summary of the method: as §1

[8] = target: T4, TYRO3 (Homo sapiens, UniProt Q06418); conditions: TYRO3, 1 μM; read-out: % control
T4 sequence (Q06418 41-890): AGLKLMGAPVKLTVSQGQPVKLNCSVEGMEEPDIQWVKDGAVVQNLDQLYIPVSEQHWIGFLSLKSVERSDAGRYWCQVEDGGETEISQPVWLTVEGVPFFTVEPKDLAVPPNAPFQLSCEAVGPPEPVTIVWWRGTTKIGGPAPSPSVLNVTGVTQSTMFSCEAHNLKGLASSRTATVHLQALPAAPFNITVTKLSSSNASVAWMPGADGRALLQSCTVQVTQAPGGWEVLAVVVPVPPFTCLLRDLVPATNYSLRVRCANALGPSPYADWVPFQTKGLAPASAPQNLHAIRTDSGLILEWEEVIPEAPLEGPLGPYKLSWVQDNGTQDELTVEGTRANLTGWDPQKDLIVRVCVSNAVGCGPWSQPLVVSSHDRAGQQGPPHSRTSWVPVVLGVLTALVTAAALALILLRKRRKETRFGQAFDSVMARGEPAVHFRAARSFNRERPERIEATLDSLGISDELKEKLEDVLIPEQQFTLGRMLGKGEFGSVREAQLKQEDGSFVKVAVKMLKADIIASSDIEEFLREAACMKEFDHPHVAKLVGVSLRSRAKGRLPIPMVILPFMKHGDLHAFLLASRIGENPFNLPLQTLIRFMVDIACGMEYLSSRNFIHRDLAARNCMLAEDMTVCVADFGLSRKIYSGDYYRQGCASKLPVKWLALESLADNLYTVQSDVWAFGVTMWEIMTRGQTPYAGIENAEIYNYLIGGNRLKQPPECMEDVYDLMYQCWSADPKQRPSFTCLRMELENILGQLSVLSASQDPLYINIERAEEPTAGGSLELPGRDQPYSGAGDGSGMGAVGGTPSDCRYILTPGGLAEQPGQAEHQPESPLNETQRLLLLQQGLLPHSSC
Summary of the method: as §1

[9] = target: T5, BIKE (Homo sapiens, UniProt Q9NSY1); conditions: read-out: % control
T5 construct: purchased KinomeScan®
Summary of the method: as §1

TRKB, sequence (Q16620 32-822): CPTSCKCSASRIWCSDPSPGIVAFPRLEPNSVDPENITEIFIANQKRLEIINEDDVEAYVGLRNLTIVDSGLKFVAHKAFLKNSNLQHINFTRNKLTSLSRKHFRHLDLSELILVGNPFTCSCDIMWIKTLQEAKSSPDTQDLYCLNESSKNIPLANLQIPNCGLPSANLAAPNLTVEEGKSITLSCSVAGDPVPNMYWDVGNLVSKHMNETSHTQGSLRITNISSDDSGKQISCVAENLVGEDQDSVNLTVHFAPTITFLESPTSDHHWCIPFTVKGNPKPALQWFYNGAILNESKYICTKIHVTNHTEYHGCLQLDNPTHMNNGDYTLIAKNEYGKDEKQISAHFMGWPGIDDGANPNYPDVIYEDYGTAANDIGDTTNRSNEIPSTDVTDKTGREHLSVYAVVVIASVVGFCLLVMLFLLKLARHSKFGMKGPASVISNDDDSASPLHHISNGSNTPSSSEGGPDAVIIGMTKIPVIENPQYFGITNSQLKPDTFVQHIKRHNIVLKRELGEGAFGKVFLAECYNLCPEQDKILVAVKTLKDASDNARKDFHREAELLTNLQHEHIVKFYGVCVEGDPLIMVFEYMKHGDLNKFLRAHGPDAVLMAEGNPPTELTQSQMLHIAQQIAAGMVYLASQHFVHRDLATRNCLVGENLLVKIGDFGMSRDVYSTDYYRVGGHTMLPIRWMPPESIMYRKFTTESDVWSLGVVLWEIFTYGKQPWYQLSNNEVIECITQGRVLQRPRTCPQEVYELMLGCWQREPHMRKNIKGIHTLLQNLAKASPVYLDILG

CNc1c(-c2cnn([C@H]3CCN(C(C)=O)C[C@@H]3F)c2)cnc2[nH]cc(Cl)c12 [Compound 77, 1-((3S,4S)-4-(4-(3-chloro-4-(methylamino)-1H-pyrrolo[2,3-b]pyridin-5-yl)-1H-pyrazol-1-yl)-3-fluoropiperidin-1-yl)ethan-1-one]
remaining binding at 1 µM [1]: 23% | remaining binding at 1 µM [2]: 36% | remaining binding at 1 µM [3]: 50% | remaining binding at 1 µM [4]: 91% | remaining binding at 1 µM [5]: 99% | remaining binding at 1 µM [6]: 81% | remaining binding at 1 µM [7]: 81% | remaining binding at 1 µM [8]: 100% | remaining binding at 1 µM [9]: 0.4%

CNc1c(-c2ccc(C(=O)N3CCC(N4CCOCC4)CC3)cc2)cnc2[nH]cc(Cl)c12 [Compound 96, (4-(3-chloro-4-(methylamino)-1H-pyrrolo[2,3-b]pyridin-5-yl)phenyl)(4-morpholinopiperidin-1-yl)methanone]
remaining binding at 1 µM [1]: 48% | remaining binding at 1 µM [2]: 4.2% | remaining binding at 1 µM [3]: 87% | remaining binding at 1 µM [4]: 96% | remaining binding at 1 µM [5]: 100% | remaining binding at 1 µM [6]: 100% | remaining binding at 1 µM [7]: 19% | remaining binding at 1 µM [8]: 100% | remaining binding at 1 µM [9]: 0.85%

O=C(c1ccc(-c2cnc3[nH]cc(Cl)c3c2NC2CCCC2)cc1)N1CCC(N2CCOCC2)CC1 [Compound 101, (4-(3-chloro-4-(cyclopentylamino)-1H-pyrrolo[2,3-b]pyridin-5-yl)phenyl)(4-morpholinopiperidin-1-yl)methanone]
remaining binding at 1 µM [1]: 100% | remaining binding at 1 µM [2]: 33% | remaining binding at 1 µM [3]: 100% | remaining binding at 1 µM [4]: 96% | remaining binding at 1 µM [5]: 100% | remaining binding at 1 µM [6]: 10% | remaining binding at 1 µM [7]: 92% | remaining binding at 1 µM [8]: 56% | remaining binding at 1 µM [9]: 6.8%
